From patent publication US5837548A, “Treatment of inflammation by inhibition of lipid body formation” (Beth Israel Hospital, priority 1995, dated 1998)
Where two headings read alike, the source gives them in different places. *1 amine or outer side, *2 acyl side, *3 side chain or, on linkers, in order; H or OH if unused. Where a SMILES comes first, the peptide text is derived from it. Bridges are numbered along the chain shown (N, C = ends). Roman numbers before positions name the chains, in order. [ ]: non-standard residue; d: D form. Actinocin(9to1) = Cc1c2oc3c(C)ccc(C(=O)[*:1])c3nc-2c(C(=O)[*:2])c(N)c1=O; NMeV = CN[CH](C(=O)O)C(C)C; Sar = CNCC(=O)O

How the values were obtained:
[1] = tested on: human eosinophils; settings: receptor-mediated; cited from earlier work
[2] = tested on: human neutrophils; settings: cited from earlier work
[3] = tested on: human neutrophils; assay: cis-unsaturated fatty acid-induced lipid body formation in human neutrophils (osmium staining, light microscopy enumeration); format: cell-based; settings: for inhibition at 1 µM / inhibition at 10 µM: Homo sapiens, Neutrophil, basal subtracted; for inhibition of arachidonic acid-induced lipid body formation / inhibition of oleic acid-induced lipid body formation: human neutrophils, staurosporine 0.1-1.0 μM, aspirin 10 μg/mL, others as in Tables 1 and 2; for effect on numbers of preformed lipid bodies: neutrophils
Method: Neutrophils were purified from fresh human blood obtained by venipuncture from healthy adult volunteers and collected into acidified citrate. After addition of 6% dextran 70 (McGaw, Irvine, Calif.), RBCs were allowed to sediment for 1 hour at room temperature. The leukocyte-rich supernatant was overlaid onto an equal volume of Ficoll-Paque gradient (Piscataway, N.J.), and centrifuged at 400×g for 20 min. […] Residual RBCs were lysed with hypotonic saline.
Human leukocytes (10^6 cells/mL) were incubated with varying concentrations of arachidonic acid (AA), oleic acid (OA) or vehicle at 37° C. in a 5% CO2 /95% O2 atmosphere, and after 1 hour leukocytes (10^5 cells per slide) were cytocentrifuged (550 rpm, 5 min) onto glass slides. During inhibitory studies, neutrophils were pretreated for 1 hour with varying concentrations of enzyme inhibitors, protein synthesis inhibitors, or vehicle as indicated. When PKC inhibitors were used, the pre-incubation time was reduced to 30 minutes to avoid toxic effects to the cells. […] Stock solutions for A23187, D609, U-73122, and indomethacin were prepared in DMSO and stored at -20° C. Aliquots were diluted in Ca^++ /Mg^++ fee HBSS to the indicated concentration immediately prior to use. […] The morphology of fixed cells was observed, and lipid bodies were enumerated with phase contrast microscopy and a 100× objective lens in 50 consecutively scanned leukocytes.
Results were expressed as mean±SEM and were analyzed statistically by means of the analysis of variance followed by the Newman-Keuls-Student test with the level of significance set at p<0.05. Correlation coefficients were determined by linear regression, and correlation analysis was performed by Fisher's r to z transformation with the level of significance set at p<0.05.
^1 Neutrophils (10^6 /ml) were pretreated with protein kinase C
(actinomycin D, cycloheximide) for 30 min or with phospholipase C
inhibitors (D609, U73122) for 1 h. The cells were then stimulated with
vehicle, arachidonic acid (15 μM), or oleic acid (10 μM), for 1 h.
Results are mean ± SEM from fifty consecutively counted neutrophils.
Statistically significant differences between the agonist alone and the
inhibitor are represented by an asterisk(*). Percent inhibition has been
calculated after subtracting out the basal number of lipid bodies/PMN
present prior to stimulation.
^1 Neutrophils (10^6 /ml) were pretreated with the NSAID or
vehicle for 1 h then stimulated with vehicle, arachidonic acid, or oleic
± SEM from fifty consecutively counted neutrophils. Statistically
significant differences between the agonist alone and the NSAID are
represented by an asterisk (*). Percent inhibition has been calculated
after subtracting out the basal number of lipid bodies/PMN present prior

[4] = tested on: human leukocytes; assay: cytotoxicity / cell viability by trypan blue dye exclusion; format: cell-based; settings: neutrophils
Method: Human leukocytes (10^6 cells/mL) were incubated with varying concentrations of arachidonic acid (AA), oleic acid (OA) or vehicle at 37° C. in a 5% CO2 /95% O2 atmosphere, and after 1 hour leukocytes (10^5 cells per slide) were cytocentrifuged (550 rpm, 5 min) onto glass slides. During inhibitory studies, neutrophils were pretreated for 1 hour with varying concentrations of enzyme inhibitors, protein synthesis inhibitors, or vehicle as indicated. When PKC inhibitors were used, the pre-incubation time was reduced to 30 minutes to avoid toxic effects to the cells. The cell viability, determined by trypan blue dye exclusion at the end of each experiment, was always greater than 90%. Stock solutions for A23187, D609, U-73122, and indomethacin were prepared in DMSO and stored at -20° C. Aliquots were diluted in Ca^++ /Mg^++ fee HBSS to the indicated concentration immediately prior to use. The final DMSO concentration was always lower than 0.1% and had no effect on lipid body numbers. […] The morphology of fixed cells was observed, and lipid bodies were enumerated with phase contrast microscopy and a 100× objective lens in 50 consecutively scanned leukocytes.

[5] = arachidonic acid 15 μM, inhibitor 1 μM
[6] = arachidonic acid 15 μM, inhibitor 10 μM
[7] = oleic acid 10 μM, inhibitor 1 μM
[8] = oleic acid 10 μM, inhibitor 10 μM

Compound	induction of lipid body formation [1]	induction of lipid body formation [2]	lipid bodies (mean ± SEM)/cell [3, 5] [lipid bodies/cell]	lipid bodies (mean ± SEM)/cell [3, 6] [lipid bodies/cell]	inhibition of arachidonic acid-induced lipid body formation [3]	inhibition of oleic acid-induced lipid body formation [3]	effect on numbers of preformed lipid bodies [3]	lipid bodies (mean ± SEM)/cell [3, 7] [lipid bodies/cell]	lipid bodies (mean ± SEM)/cell [3, 8] [lipid bodies/cell]	cytotoxicity [4]	further results
CCCCC/C=C\C[C@H](O)/C=C/C=C\C/C=C\CCCC(=O)O [12-HETE]	elicit lipid body formation	elicit lipid body formation	–	–	–	–	–	–	–	–	–
CCCCC[C@H](O)/C=C/C=C\C/C=C\C/C=C\CCCC(=O)O [15-HETE]	elicit lipid body formation	elicit lipid body formation	–	–	–	–	–	–	–	–	–
Cc1c2oc3c(C)ccc(C(=O)NC4C(=O)NC(C(C)C)C(=O)N5CCCC5C(=O)N(C)CC(=O)N(C)C(C(C)C)C(=O)OC4C)c3nc-2c(C(=O)NC2C(=O)NC(C(C)C)C(=O)N3CCCC3C(=O)N(C)CC(=O)N(C)C(C(C)C)C(=O)OC2C)c(N)c1=O (stereo not shown) [actinomycin D] (I: TVP[Sar][NMeV] / II: TVP[Sar][NMeV]; ester I:1-I:C, II:1-II:C; linker I:N-II:N via Actinocin(9to1); configuration not given here)	–	–	8.4 ± 0.3	7.6 ± 0.3	significantly inhibited	significantly inhibited	did not alter numbers of preformed lipid bodies	8.8 ± 0.3	8.1 ± 0.3	not cytotoxic	inhibition at 1 µM ([3]; arachidonic acid 15 μM, inhibitor 1 μM, read-out: % inhibition): 47%; inhibition at 10 µM ([3]; arachidonic acid 15 μM, inhibitor 10 μM, read-out: % inhibition): 64%; inhibition at 1 µM ([3]; oleic acid 10 μM, inhibitor 1 μM, read-out: % inhibition): 26%; inhibition at 10 µM ([3]; oleic acid 10 μM, inhibitor 10 μM, read-out: % inhibition): 42%
C[C@@H]1C[C@@H]([C@H](O)CC2CC(=O)NC(=O)C2)C(=O)[C@@H](C)C1 [cycloheximide]	–	–	9.8 ± 0.3	9.2 ± 0.3	significantly inhibited	significantly inhibited	did not alter numbers of preformed lipid bodies	9.0 ± 0.3	8.3 ± 0.3	not cytotoxic	inhibition at 1 µM [3, 5]: 17%; inhibition at 10 µM [3, 6]: 30%; inhibition at 1 µM [3, 7]: 22%; inhibition at 10 µM [3, 8]: 38%
CCCCCCCCCCCCCCCCOCC(COP(=O)([O-])OCC[N+](C)(C)C)OC(C)=O (stereo not shown) [platelet activating factor]	elicit lipid body formation	Lipid body formation is also induced	–	–	–	–	–	–	–	–	induction of lipid body formation ([2]; listed as PAF): elicit lipid body formation
